Experimental data from patent US20130190275A1, “COMBINED THERAPIES OF ANTIPSYCHOTIC DRUGS AND TETRACYCLINES IN THE TREATMENT OF PSYCHIATRIC DISORDERS” (MOR RESEARCH APPLICATIONS LTD., priority 2006, published 2013).

Tested on: patients who experience first psychotic episode
Assay: Calgary Depression Scale for Schizophrenia, adjuvant study
Type: in vivo, human
Settings: atypical antipsychotic drug+minocycline 200 mg/day vs +placebo; p=0.099, n.s.
Experimental: The study was carried out in patients who experience first psychotic episode, and has followed the patient for a total duration of 6 months. As the study examines Minocycline as an adjuvant drug, the sample includes patients receiving one of the following atypical anti-psychotic drugs: Risperdal, Zyprexa, Geodon, Seroquel, and Leponex. […] Initial evaluation included the following clinical measures: • SCID (for reliability of diagnosis) • CGI (Clinical Global Impression) • PANSS (Positive and Negative Syndrome Scale for Schizophrenia) • SANS (Scale for the Assessment of Negative Symptoms) • Calgary Depression Scale for Schizophrenia • GAF • GRAF • Insight and Treatment Attitudes Questionnaire • QLS (Quality of Life Scale) • Multinomah Community Ability Scale • Extrapyramidal Side Effects Scale. Minocycline was given as an add-on therapy. […] Clinical status was evaluated by the aforementioned scales at the onset of the study, every week for the first 6 weeks, and then once a month for the rest of the study period. Cognitive capabilities were assessed by the neuropsychological battery of tests according to the following schedule: upon initiation of the study (referred to as visit 1 in FIGS. 5-8), 3 months (referred to as visit 2 in FIGS. 5-8), and 6 months (referred to as visit 3 in FIGS. 5-8) after the start of the study. […]

Structure (SMILES): CN(C)c1ccc(O)c2c1C[C@H]1C[C@H]3[C@H](N(C)C)C(O)=C(C(N)=O)C(=O)[C@@]3(O)C(O)=C1C2=O [minocycline]
- Total Calgary Score: tended to reach greater improvement
